Test results taken from patent US10392391B2 (Vertex Pharmaceuticals Incorporated, priority 2012, dated 2019).

Biological target: ATR kinase (full-length ATR) (Homo sapiens (Human), UniProt Q13535)
Assay: ATR inhibition assay (radioactive-phosphate incorporation)
Type: biochemical
Details: Ki(app), 5 nM full-length ATR, 10 μM ATP, 25° C.
Method in brief: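 Ki(app) was fitted by non-linear regression to background-corrected initial rates. Full-length ATR (5 nM) phosphorylated 800 μM peptide using 10 μM [γ-33P]ATP at 25° C in Tris/HCl pH 7.5 buffer with MgCl2, DTT and 7% DMSO. After 10-minute compound pre-incubation and 24-hour reaction, phosphocellulose filters were scintillation counted.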

Sequence of ATR kinase (full-length ATR) (Q13535 whole entry): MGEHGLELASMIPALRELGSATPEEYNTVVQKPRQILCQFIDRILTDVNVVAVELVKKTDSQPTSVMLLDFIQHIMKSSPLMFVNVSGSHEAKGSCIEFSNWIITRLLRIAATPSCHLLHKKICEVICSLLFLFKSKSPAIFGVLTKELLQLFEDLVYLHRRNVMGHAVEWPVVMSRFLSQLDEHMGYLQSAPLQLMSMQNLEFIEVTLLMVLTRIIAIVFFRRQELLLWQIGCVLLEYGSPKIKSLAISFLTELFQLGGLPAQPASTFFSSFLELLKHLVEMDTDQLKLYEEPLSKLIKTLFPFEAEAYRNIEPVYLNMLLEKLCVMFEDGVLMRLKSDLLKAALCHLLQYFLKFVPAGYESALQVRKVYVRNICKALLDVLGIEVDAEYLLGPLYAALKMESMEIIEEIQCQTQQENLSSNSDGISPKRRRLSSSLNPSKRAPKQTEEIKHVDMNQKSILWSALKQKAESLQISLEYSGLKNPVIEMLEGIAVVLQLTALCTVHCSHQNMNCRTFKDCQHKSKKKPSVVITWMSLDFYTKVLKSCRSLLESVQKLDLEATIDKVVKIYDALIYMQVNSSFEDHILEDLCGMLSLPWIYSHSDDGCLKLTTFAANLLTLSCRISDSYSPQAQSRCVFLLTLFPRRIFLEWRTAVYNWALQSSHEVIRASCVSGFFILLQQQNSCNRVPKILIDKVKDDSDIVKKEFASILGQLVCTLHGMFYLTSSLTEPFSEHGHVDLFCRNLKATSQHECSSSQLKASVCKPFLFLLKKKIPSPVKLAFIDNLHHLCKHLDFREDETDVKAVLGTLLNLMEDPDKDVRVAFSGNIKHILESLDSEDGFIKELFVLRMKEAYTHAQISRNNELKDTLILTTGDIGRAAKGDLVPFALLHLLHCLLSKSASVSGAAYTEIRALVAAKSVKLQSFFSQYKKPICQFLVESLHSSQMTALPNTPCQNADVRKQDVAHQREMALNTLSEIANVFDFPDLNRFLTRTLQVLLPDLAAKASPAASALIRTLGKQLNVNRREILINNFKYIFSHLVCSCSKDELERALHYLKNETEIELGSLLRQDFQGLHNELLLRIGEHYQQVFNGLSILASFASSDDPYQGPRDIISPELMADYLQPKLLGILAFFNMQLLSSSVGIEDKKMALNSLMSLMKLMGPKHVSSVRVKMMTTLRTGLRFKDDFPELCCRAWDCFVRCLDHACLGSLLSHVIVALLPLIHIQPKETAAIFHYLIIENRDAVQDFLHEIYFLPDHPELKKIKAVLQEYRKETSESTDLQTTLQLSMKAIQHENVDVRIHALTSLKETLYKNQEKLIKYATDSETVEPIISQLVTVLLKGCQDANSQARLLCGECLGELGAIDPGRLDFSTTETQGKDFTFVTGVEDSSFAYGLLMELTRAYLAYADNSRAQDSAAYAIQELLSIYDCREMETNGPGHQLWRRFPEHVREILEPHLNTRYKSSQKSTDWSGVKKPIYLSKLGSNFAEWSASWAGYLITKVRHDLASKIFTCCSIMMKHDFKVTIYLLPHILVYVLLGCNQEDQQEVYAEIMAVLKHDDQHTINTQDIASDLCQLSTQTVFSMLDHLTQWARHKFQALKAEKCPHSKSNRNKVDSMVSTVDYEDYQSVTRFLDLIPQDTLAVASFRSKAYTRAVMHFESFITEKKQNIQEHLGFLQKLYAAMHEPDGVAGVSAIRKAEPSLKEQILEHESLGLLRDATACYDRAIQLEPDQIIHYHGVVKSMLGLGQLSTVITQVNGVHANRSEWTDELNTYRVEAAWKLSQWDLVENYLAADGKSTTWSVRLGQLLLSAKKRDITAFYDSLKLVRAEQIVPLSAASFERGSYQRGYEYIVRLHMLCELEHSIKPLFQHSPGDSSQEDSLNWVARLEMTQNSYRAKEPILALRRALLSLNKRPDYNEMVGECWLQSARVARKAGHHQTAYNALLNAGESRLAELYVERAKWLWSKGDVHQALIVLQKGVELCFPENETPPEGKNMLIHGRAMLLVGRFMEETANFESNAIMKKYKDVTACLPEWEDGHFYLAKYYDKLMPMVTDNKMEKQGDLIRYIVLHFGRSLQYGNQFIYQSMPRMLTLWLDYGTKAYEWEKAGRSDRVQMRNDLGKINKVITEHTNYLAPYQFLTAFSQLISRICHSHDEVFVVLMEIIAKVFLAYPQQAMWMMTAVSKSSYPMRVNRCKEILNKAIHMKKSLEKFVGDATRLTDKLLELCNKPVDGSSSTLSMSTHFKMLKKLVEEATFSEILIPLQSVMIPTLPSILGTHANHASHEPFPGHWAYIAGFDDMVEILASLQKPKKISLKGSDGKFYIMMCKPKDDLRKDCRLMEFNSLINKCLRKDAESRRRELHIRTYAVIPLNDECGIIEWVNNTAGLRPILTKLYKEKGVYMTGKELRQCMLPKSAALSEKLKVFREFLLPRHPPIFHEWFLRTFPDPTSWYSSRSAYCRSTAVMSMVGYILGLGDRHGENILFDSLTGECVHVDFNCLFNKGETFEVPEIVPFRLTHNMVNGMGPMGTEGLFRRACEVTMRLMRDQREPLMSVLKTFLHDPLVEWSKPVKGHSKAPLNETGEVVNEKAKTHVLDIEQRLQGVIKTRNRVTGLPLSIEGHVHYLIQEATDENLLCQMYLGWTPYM

| SMILES | Ki [nM] |
| --- | --- |
| Cc1cc(C(=O)N2CCN(C)CC2)ccc1-c1ccncc1NC(=O)c1c(N)nn2cc(F)cnc12 [I-C-45, 2-amino-6-fluoro-N-(4-(2-methyl-4-(4-methylpiperazine-1-carbonyl)phenyl)pyridin-3-yl)pyrazolo[1,5-a]pyrimidine-3-carboxamide] | 10 to 1000 |
| C[C@@H]1CN(C(=O)C2CCN(c3c(F)cncc3NC(=O)c3c(N)nn4cc(F)cnc34)CC2)CCN1C [I-G-50, (R)-2-amino-N-(4-(4-(3,4-dimethylpiperazine-1-carbonyl)piperidin-1-yl)-5-fluoropyridin-3-yl)-6-fluoropyrazolo[1,5-a]pyrimidine-3-carboxamide] | 10 to 1000 |
| CN1CCC(N(C)S(=O)(=O)C2CCN(c3c(F)cncc3NC(=O)c3c(N)nn4cc(F)cnc34)CC2)CC1 [I-N-148, 2-amino-6-fluoro-N-(5-fluoro-4-(4-(N-methyl-N-(1-methylpiperidin-4-yl)sulfamoyl)piperidin-1-yl)pyridin-3-yl)pyrazolo[1,5-a]pyrimidine-3-carboxamide] | 10 to 1000 |
| Nc1nn2cc(F)cnc2c1C(=O)Nc1cnccc1O[C@H]1CN2CCC1CC2 [I-O-5, (R)-2-amino-6-fluoro-N-(4-(quinuclidin-3-yloxy)pyridin-3-yl)pyrazolo[1,5-a]pyrimidine-3-carboxamide] | 10 to 1000 |
| Nc1nn2cc(F)cnc2c1C(=O)Nc1cnccc1-c1ccncc1 [I-C-24, N-([4,4′-bipyridin]-3-yl)-2-amino-6-fluoropyrazolo[1,5-a]pyrimidine-3-carboxamide] | 10 to 1000 |
| Cn1ccc2c(NC(=O)c3c(N)nn4cc(F)cnc34)cncc21 [I-C-74, 2-amino-6-fluoro-N-(1-methyl-1H-pyrrolo[2,3-c]pyridin-4-yl)pyrazolo[1,5-a]pyrimidine-3-carboxamide] | 10 to 1000 |
| Nc1nn2cc(F)cnc2c1C(=O)Nc1cnccc1N1CCN2CCOC[C@@H]2C1 [I-N-115, (S)-2-amino-6-fluoro-N-(4-(hexahydropyrazino[2,1-c][1,4]oxazin-8(1H)-yl)pyridin-3-yl)pyrazolo[1,5-a]pyrimidine-3-carboxamide] | 10 to 1000 |
| CN1C2CCC1CN(C(=O)C1CCN(c3c(F)cncc3NC(=O)c3c(N)nn4cc(F)cnc34)CC1)C2 [I-G-52, 2-amino-6-fluoro-N-(5-fluoro-4-(4-(8-methyl-3,8-diazabicyclo[3.2.1]octane-3-carbonyl)piperidin-1-yl)pyridin-3-yl)pyrazolo[1,5-a]pyrimidine-3-carboxamide] | 10 to 1000 |
| CN1CCOC[C@@H]1c1ccc(-c2ccncc2NC(=O)c2c(N)nn3cc(F)cnc23)cc1 [I-C-66, (S)-2-amino-6-fluoro-N-(4-(4-(4-methylmorpholin-3-yl)phenyl)pyridin-3-yl)pyrazolo[1,5-a]pyrimidine-3-carboxamide] | 10 to 1000 |
| Nc1nn2cc(F)cnc2c1C(=O)Nc1cnccc1N1CCC(C(=O)N2CC3(CCO3)C2)CC1 [I-G-90, N-(4-(4-(1-oxa-6-azaspiro[3.3]heptane-6-carbonyl)piperidin-1-yl)pyridin-3-yl)-2-amino-6-fluoropyrazolo[1,5-a]pyrimidine-3-carboxamide] | 10 to 1000 |
| CC1(C)CN(C(=O)C2CCN(c3c(F)cncc3NC(=O)c3c(N)nn4cc(F)cnc34)CC2)CCN1 [I-G-27, 2-amino-N-(4-(4-(3,3-dimethylpiperazine-1-carbonyl)piperidin-1-yl)-5-fluoropyridin-3-yl)-6-fluoropyrazolo[1,5-a]pyrimidine-3-carboxamide] | 10 to 1000 |
| CCN1CCCCC1C(=O)N1CCN(c2c(F)cncc2NC(=O)c2c(N)nn3cc(F)cnc23)CC1 (stereo not drawn) [I-N-204, 2-amino-N-(4-(4-(1-ethylpiperidine-2-carbonyl)piperazin-1-yl)-5-fluoropyridin-3-yl)-6-fluoropyrazolo[1,5-a]pyrimidine-3-carboxamide] | 10 to 1000 |
| Nc1nn2cc(Cl)cnc2c1C(=O)Nc1cnccc1N1CCn2cncc2C1 [I-N-75, 2-amino-6-chloro-N-(4-(5,6-dihydroimidazo[1,5-a]pyrazin-7(8H)-yl)pyridin-3-yl)pyrazolo[1,5-a]pyrimidine-3-carboxamide] | 10 to 1000 |
| CN(C)CC1CCN(c2ccncc2NC(=O)c2c(N)nn3cc(Cl)cnc23)CC1 [I-N-45, 2-amino-6-chloro-N-(4-(4-((dimethylamino)methyl)piperidin-1-yl)pyridin-3-yl)pyrazolo[1,5-a]pyrimidine-3-carboxamide] | 10 to 1000 |
| Nc1nn2cc(F)cnc2c1C(=O)Nc1cncc(F)c1N1CCC(N2CCCC2=O)CC1 [I-N-147, 2-amino-6-fluoro-N-(5-fluoro-4-(4-(2-oxopyrrolidin-1-yl)piperidin-1-yl)pyridin-3-yl)pyrazolo[1,5-a]pyrimidine-3-carboxamide] | 10 to 1000 |
| CN1CC2CC1CN2C(=O)C1CCN(c2c(F)cncc2NC(=O)c2c(N)nn3cc(F)cnc23)CC1 (stereo not drawn) [I-G-53, 2-amino-6-fluoro-N-(5-fluoro-4-(4-(5-methyl-2,5-diazabicyclo[2.2.1]heptane-2-carbonyl)piperidin-1-yl)pyridin-3-yl)pyrazolo[1,5-a]pyrimidine-3-carboxamide] | 10 to 1000 |

More lines, now with the values ahead:

| Ki [nM] | SMILES |
| --- | --- |
| 10 to 1000 | CCOc1ccncc1NC(=O)c1c(N)nn2cc(F)cnc12 [I-O-14, 2-amino-N-(4-ethoxypyridin-3-yl)-6-fluoropyrazolo[1,5-a]pyrimidine-3-carboxamide] |
| 10 to 1000 | Nc1nn2cc(F)cnc2c1C(=O)Nc1cncc(F)c1N1CCN(C(=O)C2CC2)CC1 [I-N-276, 2-amino-N-(4-(4-(cyclopropanecarbonyl)piperazin-1-yl)-5-fluoropyridin-3-yl)-6-fluoropyrazolo[1,5-a]pyrimidine-3-carboxamide] |
| 10 to 1000 | CN1CCN(C(=O)[C@H]2CC[C@@H](Oc3ccncc3NC(=O)c3c(N)nn4cc(F)cnc34)CC2)CC1 [I-O-19, 2-amino-6-fluoro-N-(4-(((1s,4s)-4-(4-methylpiperazine-1-carbonyl)cyclohexyl)oxy)pyridin-3-yl)pyrazolo[1,5-a]pyrimidine-3-carboxamide] |
| 10 to 1000 | Nc1nn2cc(Cl)cnc2c1C(=O)Nc1cnccc1O[C@H]1C[C@]2(CCN2)C1 [I-O-78, N-(4-((4s,6r)-1-azaspiro[3.3]heptan-6-yloxy)pyridin-3-yl)-2-amino-6-chloropyrazolo[1,5-a]pyrimidine-3-carboxamide] |
| 10 to 1000 | Nc1nn2cc(F)cnc2c1C(=O)Nc1cnccc1N1CC(=O)N2CCCC2C1 (stereo not drawn) [I-N-222, 2-amino-6-fluoro-N-(4-(4-oxohexahydropyrrolo[1,2-a]pyrazin-2(1H)-yl)pyridin-3-yl)pyrazolo[1,5-a]pyrimidine-3-carboxamide] |
| 10 to 1000 | Nc1nn2cc(F)cnc2c1C(=O)Nc1cncc(Cl)c1N1CCCC1 [I-N-281, 2-amino-N-(5-chloro-4-(pyrrolidin-1-yl)pyridin-3-yl)-6-fluoropyrazolo[1,5-a]pyrimidine-3-carboxamide] |
| 10 to 1000 | Cc1ccnn1-c1ccncc1NC(=O)c1c(N)nn2cc(F)cnc12 [I-N-223, 2-amino-6-fluoro-N-(4-(5-methyl-1H-pyrazol-1-yl)pyridin-3-yl)pyrazolo[1,5-a]pyrimidine-3-carboxamide] |
| 10 to 1000 | Nc1nn2cc(F)cnc2c1C(=O)Nc1cnccc1OC1CCC(C(=O)O)CC1 (stereo not drawn) [I-O-8, 4-((3-(2-amino-6-fluoropyrazolo[1,5-a]pyrimidine-3-carboxamido)pyridin-4-yl)oxy)cyclohexanecarboxylic acid] |
